System: mouse T lymphocytes stimulated with the combination of ionomycin plus PMA
Assay: T-cell proliferation assay (ionomycin plus PMA induced T-cell stimulation, tritiated thymidine uptake)
Assay type: cell-based
Conditions: for immunosuppressive activity, inhibition of T-cell activation: qualitative statement
Description: The principle of this assay is to measure the proliferation of mouse T lymphocytes stimulated with the combination of ionomycin plus PMA. A positive sample in this assay will inhibit T-cell proliferation, as indicated by reduced tritiated thymidine uptake.
Spleens from C57B1/6 mice were taken under sterile conditions and gently dissociated in ice-cold RPMI 1640 culture medium (GIBCO, Grand Island, N.Y.) supplemented with 10% heat-inactivated fetal calf serum (GIBCO). Cells were pelleted by centrifugation at 1500 rpm for 8 minutes. Contaminating red cells were removed by treating the pellet with ammonium chloride lysing buffer (GIBCO) for 2 minutes at 4°C. Cold medium was added and cells were again centrifuged at 1500 rpm for 8 minutes. T lymphocytes were then isolated by separation of the cell suspension on nylon wool columns as follows: Nylon wool columns were prepared by packing approximately 4 grams of washed and dried nylon wool into 20 ml plastic syringes. The columns were sterilized by autoclaving at 250°F for 30 minutes. Nylon wool columns were wetted with warm (37°C) culture medium and rinsed with the same medium. Washed spleen cells resuspended in warm medium were slowly applied to the nylon wool. The columns were then incubated in an upright position at 37°C for 1 hour. Non-adherent T lymphocytes were eluted from the columns with warm culture medium and the cell suspensions were spun as above.
Purified T lymphocytes were resuspended at 2.5 x 10⁵ cells/ml in complete culture medium composed of RPMI 1640 medium with 10% heat-inactivated fetal calf serum, 100 mM glutamine, 1 mM sodium pyruvate, 2 x 10⁻⁵ M 2-mercaptoethanol and 50 µg/ml gentamycin. Ionomycin was added at 250 ng/ml and PMA at 10 ng/ml. The cell suspension was immediately distributed into 96 well flat-bottom microculture plates (Costar) at 200 µl/well. […] L-679,934 was used as a standard. The culture plates were then incubated at 37°C in a humidified atmosphere of 5% CO₂-95% air for 44 hours. The proliferation of T lymphocytes was assessed by measurement of tritiated thymidine incorporation. After 44 hours of culturing, the cells were pulse-labelled with 2 µCi/well of tritiated thymidine (NEN, Cambridge, MA). After another 4 hours of incubation, cultures were harvested on glass fiber filters using a multiple sample harvester. Radioactivity of filter discs corresponding to individual wells was measured by standard liquid scintillation counting methods (Betacounter). Mean counts per minute of replicate wells were calculated and the results expressed as percent inhibition of tritiated thymidine uptake (proliferation) as follows: [formula]
Purified T lymphocytes were resuspended at 2.5 x 10⁵ cells/ml in complete culture medium composed of RPMI 1640 medium with 10% heat-inactivated fetal calf serum, 100 mM glutamine, 1 mM sodium pyruvate, 2 x 10⁻⁵ M 2-mercaptoethanol and 50 µg/ml gentamycin. Ionomycin was added at 250 ng/ml and PMA at 10 ng/ml. The cell suspension was immediately distributed into 96 well flat-bottom microculture plates (Costar) at 200 µl/well. […] L-679,934 was used as a standard. The culture plates were then incubated at 37°C in a humidified atmosphere of 5% CO₂-95% air for 44 hours. The proliferation of T lymphocytes was assessed by measurement of tritiated thymidine incorporation. After 44 hours of culturing, the cells were pulse-labelled with 2 µCi/well of tritiated thymidine (NEN, Cambridge, MA). After another 4 hours of incubation, cultures were harvested on glass fiber filters using a multiple sample harvester.

Row | SMILES | % Inhibition (0.29 ng/ml, ³H-thymidine pulse 4 hours, harvest at 48 hours) [%] | % Inhibition (0.44 ng/ml, ³H-thymidine pulse 4 hours, harvest at 48 hours) [%] | % Inhibition (0.66 ng/ml, ³H-thymidine pulse 4 hours, harvest at 48 hours) [%] | % Inhibition (0.99 ng/ml, ³H-thymidine pulse 4 hours, harvest at 48 hours) [%] | % Inhibition (1.5 ng/ml, ³H-thymidine pulse 4 hours, harvest at 48 hours) [%] | % Inhibition (2.2 ng/ml, ³H-thymidine pulse 4 hours, harvest at 48 hours) [%] | % Inhibition (3.3 ng/ml, ³H-thymidine pulse 4 hours, harvest at 48 hours) [%] | % Inhibition (5 ng/ml, ³H-thymidine pulse 4 hours, harvest at 48 hours) [%] | immunosuppressive activity, inhibition of T-cell activation | % Inhibition (0.6 ng/ml, ³H-thymidine pulse 4 hours, harvest at 48 hours) [%] | % Inhibition (0.9 ng/ml, ³H-thymidine pulse 4 hours, harvest at 48 hours) [%] | % Inhibition (1.3 ng/ml, ³H-thymidine pulse 4 hours, harvest at 48 hours) [%] | % Inhibition (1.9 ng/ml, ³H-thymidine pulse 4 hours, harvest at 48 hours) [%] | % Inhibition (2.9 ng/ml, ³H-thymidine pulse 4 hours, harvest at 48 hours) [%] | % Inhibition (4.4 ng/ml, ³H-thymidine pulse 4 hours, harvest at 48 hours) [%] | % Inhibition (6.6 ng/ml, ³H-thymidine pulse 4 hours, harvest at 48 hours) [%] | % Inhibition (10 ng/ml, ³H-thymidine pulse 4 hours, harvest at 48 hours) [%] | inhibition at 0.01 µg/mL (Mus musculus, T-lymphocyte, 10 ng/ml, ³H-thymidine pulse 4 hours, harvest at 48 hours) [%]
1 | C=CC[C@@H]1/C=C(\C)C[C@H](C)C[C@H](OC)[C@H]2O[C@@](O)(C(=O)C(=O)N3CCCC[C@H]3C(=O)O[C@H](/C(C)=C/[C@@H]3CC[C@@H](O)[C@H](O)C3)[C@H](C)[C@@H](O)CC1=O)[C@H](C)C[C@@H]2OC [demethomycin, 31-desmethoxy-31-hydroxy-L-679,934] | 0 | 0 | 36.8 | 67.1 | 80.5 | 92.9 | 97.2 | 98.1 | positive inhibition of T-cell activation |  |  |  |  |  |  |  |  | 
2 | CC[C@@H]1/C=C(\C)C[C@H](C)C[C@H](OC)[C@H]2O[C@@](O)(C(=O)C(=O)N3CCCC[C@H]3C(=O)O[C@H](/C(C)=C/[C@@H]3CC[C@@H](O)[C@H](O)C3)[C@H](C)[C@@H](O)CC1=O)[C@H](C)C[C@@H]2OC [demethimmunomycin, 31-desmethoxy-31-hydroxy-L-683,590] |  |  |  |  |  |  |  |  | positive inhibition of T-cell activation | 0 | 9.0 | 38.2 | 72.1 | 86.3 | 91.9 | 97.9 | 98.6 | 
3 | C=CC[C@@H]1/C=C(\C)C[C@H](C)C[C@H](OC)[C@H]2O[C@@](O)(C(=O)C(=O)N3CCCC[C@H]3C(=O)O[C@H](/C(C)=C/[C@@H]3CC[C@@H](O)[C@H](OC)C3)[C@H](C)[C@@H](O)CC1=O)[C@H](C)C[C@@H]2OC [L-679,934, reference compound] |  |  |  |  |  |  |  |  |  |  |  |  |  |  |  |  |  | 99

From patent publication EP0353827A2, “New immunosuppressant-producing culture” (MERCK & CO. INC., priority 1988, dated 1990)
